Measurements as given in ChEMBL document CHEMBL3124857, “Encoded library technology as a source of hits for the discovery and lead optimization of a potent and selective class of bactericidal direct inhibitors of Mycobacterium tuberculosis InhA” (J Med Chem, 2014).
≈ marks a conversion by molar mass, not a printed value. Calls of active or inactive are those of the source. No cut-off for these calls is given here.

How the values were obtained:
[1] = target: T1, Enoyl-[acyl-carrier-protein] reductase [NADH] (Mycobacterium tuberculosis, UniProt P9WGR1); test: Inhibition of Mycobacterium tuberculosis full length biotinylated InhA (270 amino acids) using DDCoA as substrate assessed as NADH oxidation by fluorimetric analysis
T1 sequence (P9WGR1 whole entry): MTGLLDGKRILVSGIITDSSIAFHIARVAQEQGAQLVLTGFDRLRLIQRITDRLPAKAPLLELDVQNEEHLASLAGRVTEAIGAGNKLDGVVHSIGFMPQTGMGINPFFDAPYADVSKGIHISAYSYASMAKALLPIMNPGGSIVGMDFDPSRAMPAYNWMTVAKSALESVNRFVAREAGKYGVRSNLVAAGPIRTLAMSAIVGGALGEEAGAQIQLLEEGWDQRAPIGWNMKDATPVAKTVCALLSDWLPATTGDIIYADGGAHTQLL

[2] = test system: Mycobacterium tuberculosis; test: Antitubercular activity against wild type Mycobacterium tuberculosis H37Rv ATCC 25618 assessed as growth inhibition after 6 days by resazurin dye-based assay; type: functional; settings: for MIC90: H37Rv ATCC 25618, 144 h
[3] = Drug degradation assessed as formation of 2-((2S,4R)-1-(benzofuran-3-carbonyl)-4-(3-ethyl-1-methyl-1H-pyrazole-5-carboxamido)pyrrolidine-2-carboxamido)acetic acid; type: physicochemical
[4] = Kinetic solubility of the compound after 1 hr by CLND assay; type: physicochemical; settings: 1 h

Row | SMILES | IC50 [1] [nM] | MIC90 [2] [µM] | Stability [3] | Kinetic_solubility [4] | growth inhibition (GI) [2]
1 | CCc1cc(C(=O)N[C@@H]2C[C@@H](C(N)=O)N(C(=O)c3coc4ccccc34)C2)n(C)n1 | 12 | 3 (≈ 1.23 µg/mL) |  |  | 
2 | CCc1cc(C(=O)N[C@@H]2C[C@@H](C(=O)NCc3ncco3)N(C(=O)c3coc4ccccc34)C2)n(C)n1 | 5 | 1 (≈ 0.491 µg/mL) |  |  | 
3 | CCc1cc(C(=O)N[C@@H]2C[C@@H](C(=O)NC3CCCC3)N(C(=O)c3coc4ccccc34)C2)n(C)n1 | 40 | 4 (≈ 1.91 µg/mL) |  |  | 
4 | CCc1cc(C(=O)N[C@@H]2C[C@@H](C(=O)Nc3ccn(C)n3)N(C(=O)c3coc4ccccc34)C2)n(C)n1 | 7 | 4 (≈ 1.96 µg/mL) |  |  | 
5 | CCc1cc(C(=O)N[C@@H]2C[C@@H](C(=O)NCCc3ccc(F)cc3)N(C(=O)c3coc4ccccc34)C2)n(C)n1 | 6 | 1 (≈ 0.532 µg/mL) |  |  | 
6 | CCNC(=O)[C@@H]1C[C@@H](NC(=O)c2cc(CC)nn2C)CN1C(=O)c1ccc2sccc2c1 | 121 |  |  |  | 
7 | CCc1cc(C(=O)N[C@@H]2C[C@@H](C(=O)NCCN(C)C)N(C(=O)c3coc4ccccc34)C2)n(C)n1 | 170 | > 31 |  |  | 
8 | CCc1cc(C(=O)N[C@@H]2C[C@@H](C(=O)Nc3ccn(Cc4ccc(F)cc4)n3)N(C(=O)c3coc4ccccc34)C2)n(C)n1 | 5 | 4 (≈ 2.33 µg/mL) |  |  | 
9 | CCc1cc(C(=O)N[C@@H]2C[C@@H](C(=O)NCc3ccc(F)c(F)c3)N(C(=O)c3coc4ccccc34)C2)n(C)n1 | 9 | 2 (≈ 1.07 µg/mL) |  |  | 
10 | CCCc1cc(C(=O)N[C@@H]2C[C@@H](C(=O)NCC(=O)OC)N(C(=O)c3coc4ccccc34)C2)n(C)n1 | 22 | 0.5 (≈ 0.248 µg/mL) |  |  | 
11 | CCc1cc(C(=O)N[C@@H]2C[C@@H](C(=O)Nc3ccc4c(c3)B(O)OC4)N(C(=O)c3coc4ccccc34)C2)n(C)n1 | 26 | 4 (≈ 2.17 µg/mL) |  |  | 
12 | CCc1cc(C(=O)N[C@@H]2C[C@@H](C(=O)NCC(=O)OC)N(C(=O)c3coc4ccccc34)C2)n(CC)n1 | 3 | 0.05 (≈ 0.0248 µg/mL) |  |  | 
13 | CCc1cc(C(=O)N[C@@H]2C[C@@H](C(=O)NCC3OB(O)c4ccccc43)N(C(=O)c3coc4ccccc34)C2)n(C)n1 (some centres undefined) | 35 | 2 (≈ 1.11 µg/mL) |  |  | 
14 | CCc1cc(C(=O)N[C@@H]2C[C@@H](C(=O)NCC(=O)OC)N(C(=O)c3coc4ccccc34)C2)n(Cc2ccccc2)n1 | > 1000 | > 31 |  |  | 
15 | CCc1cc(C(=O)N[C@@H]2C[C@@H](C(=O)NCCO)N(C(=O)c3coc4ccccc34)C2)n(CC)n1 | 3 | 1 (≈ 0.468 µg/mL) |  |  | 
16 | CCc1cc(C(=O)N[C@@H]2C[C@@H](C(=O)NCC(F)(F)F)N(C(=O)c3coc4ccccc34)C2)n(C)n1 | 46 | 4 (≈ 1.97 µg/mL) |  |  | 
17 | CCc1cc(C(=O)N[C@@H]2C[C@@H](C(=O)NCc3ccc4c(c3)B(O)OC4)N(C(=O)c3coc4ccccc34)C2)n(CC)n1 | 2 | 0.2 (≈ 0.114 µg/mL) |  |  | 
18 | CCc1cc(C(=O)N[C@@H]2CCN(C(=O)c3coc4ccccc34)C2)n(C)n1 | 120 | > 31 |  |  | 
19 | CCc1cc(C(=O)N[C@@H]2C[C@@H](C(=O)NCc3nc4ccccc4o3)N(C(=O)c3coc4ccccc34)C2)n(C)n1 | 3 | 0.5 (≈ 0.27 µg/mL) |  |  | 

Row | SMILES | IC50 [1] [nM] | MIC90 [2] [µM] | Stability [3] | Kinetic_solubility [4] | growth inhibition (GI) [2]
20 | CCc1cc(C(=O)N[C@@H]2C[C@@H](C(=O)Nc3cnn(CC)n3)N(C(=O)c3coc4ccccc34)C2)n(C)n1 | 3 | 4 (≈ 2.02 µg/mL) |  |  | 
21 | CCc1cc(C(=O)N[C@@H]2C[C@@H](C(=O)NCc3nccs3)N(C(=O)c3coc4ccccc34)C2)n(C)n1 | 17 | 2 (≈ 1.01 µg/mL) |  |  | 
22 | CCc1cc(C(=O)N[C@@H]2C[C@@H](C(=O)NCCNC(C)=O)N(C(=O)c3coc4ccccc34)C2)n(C)n1 | 20 | 4 (≈ 1.98 µg/mL) |  |  | 
23 | CCc1cc(C(=O)N[C@@H]2C[C@@H](C(=O)Nc3ccn(Cc4c(F)cccc4F)n3)N(C(=O)c3coc4ccccc34)C2)n(C)n1 | 4 | 0.7 (≈ 0.421 µg/mL) |  |  | 
24 | CCc1cc(C(=O)N[C@@H]2C[C@@H](C(=O)NCC3CCCO3)N(C(=O)c3coc4ccccc34)C2)n(C)n1 (some centres undefined) | 45 | 4 (≈ 1.97 µg/mL) |  |  | 
25 | CCc1cc(C(=O)N[C@@H]2C[C@@H](C(=O)NCc3ccn(CC)n3)N(C(=O)c3coc4ccccc34)C2)n(C)n1 | 32 | 4 (≈ 2.07 µg/mL) |  |  | 
26 | CCc1cc(C(=O)N[C@@H]2C[C@@H](C(=O)NCCOC)N(C(=O)c3coc4ccccc34)C2)n(C)n1 | 14 | 4 (≈ 1.87 µg/mL) |  |  | 
27 | CCCn1nc(CC)cc1C(=O)N[C@@H]1C[C@@H](C(=O)NCC(=O)OC)N(C(=O)c2coc3ccccc23)C1 | 11 | 1 (≈ 0.51 µg/mL) |  |  | 
28 | CCCNC(=O)[C@@H]1C[C@@H](NC(=O)c2cc(CC)nn2C)CN1C(=O)c1coc2ccccc12 | 21 | 15.6 (≈ 7.04 µg/mL) |  |  | 
29 | COC(=O)CNC(=O)[C@@H]1C[C@@H](NC(=O)c2cc(CC(C)C)nn2C)CN1C(=O)c1coc2ccccc12 | > 1000 | > 31 |  |  | 
30 | CCc1cc(C(=O)N[C@@H]2C[C@@H](C(=O)N(CC)CC)N(C(=O)c3coc4ccccc34)C2)n(C)n1 | 948 | > 31 |  |  | 
31 | CCc1cc(C(=O)N[C@@H]2C[C@@H](C(=O)NCC(=O)OC)N(C(=O)c3coc4ccccc34)C2)n(C)n1 | 5 | 0.5 (≈ 0.241 µg/mL) | Unstable | soluble | 
32 | CCc1cc(C(=O)N[C@@H]2C[C@@H](C(=O)NCC(N)=O)N(C(=O)c3coc4ccccc34)C2)n(C)n1 |  |  |  |  | Active
33 | CCc1cc(C(=O)N[C@@H]2C[C@@H](C(=O)NCc3nc(C)no3)N(C(=O)c3coc4ccccc34)C2)n(CC)n1 | 4 | 0.5 (≈ 0.26 µg/mL) |  |  | 
34 | CCc1cc(C(=O)N[C@@H]2C[C@@H](C(=O)NCc3ccc(C)o3)N(C(=O)c3coc4ccccc34)C2)n(C)n1 | 21 | 1.5 (≈ 0.755 µg/mL) |  |  | 
35 | CCOC(=O)CCNC(=O)[C@@H]1C[C@@H](NC(=O)c2cc(CC)nn2C)CN1C(=O)c1coc2ccccc12 | 22 | 4 (≈ 2.04 µg/mL) |  |  | 
36 | CCc1cc(C(=O)N[C@@H]2C[C@@H](C(=O)O)N(C(=O)c3coc4ccccc34)C2)n(C)n1 | 1290 |  |  |  | 
37 | CCc1cc(C(=O)N[C@@H]2C[C@@H](C(=O)NCc3ccccc3)N(C(=O)c3coc4ccccc34)C2)n(C)n1 | 41 | 4 (≈ 2 µg/mL) |  |  | 
38 | CCc1cc(C(=O)N[C@@H]2C[C@@H](C(=O)NCC(=O)N(C)C)N(C(=O)c3coc4ccccc34)C2)n(C)n1 |  |  |  |  | Active

Row | SMILES | IC50 [1] [nM] | MIC90 [2] [µM] | Stability [3] | Kinetic_solubility [4] | growth inhibition (GI) [2]
39 | CCc1cc(C(=O)N[C@@H]2C[C@@H](C(=O)NCCc3ccccn3)N(C(=O)c3coc4ccccc34)C2)n(CC)n1 | 4 | 0.5 (≈ 0.264 µg/mL) |  |  | 
40 | CCNC[C@@H]1C[C@@H](NC(=O)c2cc(CC)nn2C)CN1C(=O)c1coc2ccccc12 | 440 | > 31 |  |  | 
41 | CCc1cc(C(=O)N[C@@H]2C[C@@H](C(=O)Nc3cc(C)on3)N(C(=O)c3coc4ccccc34)C2)n(C)n1 | 18 | 16 (≈ 7.85 µg/mL) |  |  | 
42 | CCc1cc(C(=O)N[C@@H]2C[C@@H](C(=O)NCc3ccc(C(F)(F)F)cc3)N(C(=O)c3coc4ccccc34)C2)n(C)n1 | 42 | 16 (≈ 9.08 µg/mL) |  |  | 
43 | CCc1cc(C(=O)N[C@@H]2C[C@@H](C(=O)Nc3ccccn3)N(C(=O)c3coc4ccccc34)C2)n(C)n1 | 11 | 4 (≈ 1.95 µg/mL) |  |  | 
44 | CCc1cc(C(=O)N[C@@H]2C[C@@H](C(=O)OC)N(C(=O)c3coc4ccccc34)C2)n(C)n1 | 215 |  |  |  | 
45 | CCc1cc(C(=O)N[C@@H]2C[C@@H](C(=O)NC3CCOC3=O)N(C(=O)c3coc4ccccc34)C2)n(C)n1 (some centres undefined) | 80 | > 31 |  |  | 
46 | CCc1cc(C(=O)N[C@@H]2C[C@@H](C(=O)NCc3ccccn3)N(C(=O)c3coc4ccccc34)C2)n(CC)n1 | 2 | 0.7 (≈ 0.36 µg/mL) |  |  | 
47 | CCc1cc(C(=O)N[C@@H]2C[C@@H](C(=O)NCC(=O)OC)N(C(=O)c3coc4ccccc34)C2)n(CCO)n1 | > 1000 | > 31 |  |  | 
48 | CCc1cc(C(=O)N[C@@H]2C[C@@H](C(=O)NCc3cnc(C)cn3)N(C(=O)c3coc4ccccc34)C2)n(C)n1 | 22 | 8 (≈ 4.12 µg/mL) |  |  | 
49 | COC(=O)CNC(=O)[C@@H]1C[C@@H](NC(=O)c2cc(C3CC3)nn2C)CN1C(=O)c1coc2ccccc12 | 15 | 1 (≈ 0.494 µg/mL) |  |  | 
50 | CCc1cc(C(=O)N[C@@H]2C[C@@H](C(=O)Nc3ccn(CC4CCCCC4)n3)N(C(=O)c3coc4ccccc34)C2)n(C)n1 | > 1000 | > 31 |  |  | 
51 | CCc1cc(C(=O)N[C@@H]2C[C@@H](C(=O)Nc3nc(C)co3)N(C(=O)c3coc4ccccc34)C2)n(C)n1 | 9 | 8 (≈ 3.92 µg/mL) |  |  | 
52 | CCc1cc(C(=O)N[C@@H]2C[C@@H](C(=O)NCc3nc(C)no3)N(C(=O)c3coc4ccccc34)C2)n(C)n1 | 7 | 2 (≈ 1.01 µg/mL) |  |  | 
53 | CCc1cc(C(=O)N[C@@H]2C[C@@H](C(=O)NCc3ccc(OC(F)(F)F)cc3)N(C(=O)c3coc4ccccc34)C2)n(C)n1 | 5 | 23.4 (≈ 13.7 µg/mL) |  |  | 
54 | CCc1cc(C(=O)N[C@@H]2C[C@@H](C(=O)NCC(=O)NC)N(C(=O)c3coc4ccccc34)C2)n(C)n1 |  |  |  |  | Active
55 | CCNC(=O)[C@@H]1C[C@@H](NC(=O)c2cc(CC)nn2C)CN1C(=O)c1ccc2occc2c1 | 74 |  |  |  | 
56 | CCc1cc(C(=O)N[C@@H]2C[C@@H](C(=O)N[C@H](CO)Cc3ccccc3)N(C(=O)c3coc4ccccc34)C2)n(C)n1 | 112 | 1 (≈ 0.544 µg/mL) |  |  | 
57 | CCc1cc(C(=O)N[C@@H]2C[C@@H](C(=O)NCCc3ccccn3)N(C(=O)c3coc4ccccc34)C2)n(C)n1 | 25 | 1 (≈ 0.515 µg/mL) |  |  | 
